Assay results as given in patent US9181265B2, “Substituted 2,3-dihydro-1H-benzo[a]pyrano[2,3-c]phenazines as anti-angiogenic and anti-cancer agents” (UNIVERSITE CATHOLIQUE DE LOUVAIN, priority 2010, dated 2015).
Where two headings read alike, the source gives them in different places. Marks after values point to notes of the source that are not given here.

Columns and labels:
[1] = tested on: Human umbilical vein endothelial cells (HUVEC); assay: MTT test of overall cell growth, endothelial cells, normoxic or hypoxic conditions; type: cell-based; settings: for IC50: Homo sapiens; for Selectivity: if u.t.d., ratio of activity at 100 μM
Method: (§1) MTT tests were performed in order to rapidly, i.e. within 3 days, measure the effect of compounds of this invention on the overall cell growth. The test measured the number of metabolically active living cells that were able to transform the yellow product 3-(4,5-dimethylthiazol-2-yl)-2,5-diphenyl tetrazolium bromide (herein referred as MTT) into the blue product formazan dye by mitochondrial reduction. The amount of formazan obtained at the end of the experiment, measured by means of a spectrophotometer (Plate Reader Victor X4 Microplate reader (Perkin Elmer), is directly proportional to the number of living cells. Optical density determination thus enabled a quantitative measurement of the effect of the investigated compounds under control conditions (normoxia) as compared to the hypoxic conditions (0.1 or 1% O2) and/or untreated conditions.
(§2) Human umbilical vein endothelial cells (HUVEC) and six human cancer cell lines were used in the MTT tests. These cancer cell lines cover five histological cancer types including cervix (SiHa), breast (MCF-7 and MDA-MB231), prostate (PC3), glioma (U373), and colorectal (LoVo) cancers.
(§3) To perform the assay, cells were allowed to grow in 96-well microplates with a flat bottom following addition of an amount of 100 μl of cell suspension per well with 4,500 cells/well. Each cell line was seeded in its appropriate culture medium. HUVEC were cultured in a specific endothelial cell growth medium (ECACC, Sigma); SiHa cells in Glutamax-containing DMEM with 4.5 g/1 glucose (Invitrogen) supplemented with 10% Foetal Bovine Serum (PAA) and 1% penicillin+streptomycin mix (Invitrogen); MCF-7, MDA-MB-231, PC3, and LoVo cells in Glutamax-containing RPMI supplemented with 10% Foetal Bovine Serum (PAA) and 1% penicillin+streptomycin mix (Invitrogen) and U373 cells in Glutamax-containing DMEM (Invitrogen) with 5% Foetal Bovine Serum (PAA) and 1% penicillin+streptomycin mix (Invitrogen).
(§4) The detailed experimental procedure was the following: after a 24-hour period of incubation at 37° C., the culture medium was replaced by 100 μl of fresh medium in which the tested compound was previously dissolved, at the following concentrations: 10^−8 M, 5.10^−8, 10^−7, 5.10^−7, 10^−6, 5.10^−6, 10^−5, 5.10^−5 and 10^−[…]. Each experiment was performed in sestuplicates (6 times).
(§5) Cells were then incubated under normoxia in a Binder incubator (the O2 level corresponding to the concentration in the ambient air), or in a Ruskin hypoxia workstation under either 0.1% O2 (v/v) or 1% O2 (v/v). Under both conditions, the atmosphere was humidified and the CO2 concentration was fixed at 5 vol. %.
(§6) After 72 hours of incubation at 37° C. under normoxic or hypoxic conditions, with or without the compound to be tested, the medium was replaced by 100 μl of HBSS (without phenol red) containing MTT at a concentration of 0.5 or 1 mg/ml. The micro-wells were subsequently incubated during 3 hours and a half at 37° C. and centrifuged at 1300 rpm during 10 minutes. Medium was removed and formazan crystals formed were dissolved in 100 μl DMSO. The micro-wells were shaken for 5 minutes and read on a spectrophotometer at wavelengths of 570 nm (maximal formazan absorbance).
(§7) For each experimental condition, the mean optical density was calculated, allowing the determination of the percentage of living cells in comparison to the control.

MDA-MB-231 = assay: MTT test of overall cell growth, MDA-MB-231 breast cancer cells, normoxia or hypoxia; type: cell-based, human; settings: for IC50: Homo sapiens, MDA-MB-231, hypoxia 1% O2, 72 h, read-out: IC50 (μM) Hypoxia 1% O2; for IC50 (μM) Normoxia: MDA-MB-231, normoxia, 72 h; for Selectivity: MDA-MB-231, IC50 (normoxia)/IC50 (hypoxia 1% O2), if u.t.d., ratio of activity at 100 μM
Method: as §1, §2, §3, §4, §5, §6, §7

MCF-7 = assay: MTT test of overall cell growth, MCF-7 breast cancer cells, normoxia or hypoxia; type: cell-based, human; settings: for IC50 (μM) Normoxia: MCF-7, normoxia, 72 h; for IC50: Homo sapiens, MCF7, read-out: IC50 (μM) Hypoxia 1% O2; for Selectivity: MCF-7, IC50 (normoxia)/IC50 (hypoxia 1% O2), if u.t.d., ratio of activity at 100 μM
Method: as §1, §2, §3, §4, §5, §6, §7

PC3 = assay: MTT test of overall cell growth, PC3 prostate cancer cells, normoxia or hypoxia; type: cell-based, human; settings: for IC50 (μM) Normoxia: PC3, normoxia, 72 h
Method: as §1, §2, §3, §4, §5, §6, §7

LoVo = assay: MTT test of overall cell growth, LoVo colorectal cancer cells, normoxia or hypoxia; type: cell-based, human; settings: for IC50: Homo sapiens; for Selectivity: IC50 (normoxia)/IC50 (hypoxia 1% O2), if u.t.d., ratio of activity at 100 μM
Method: as §1, §2, §3, §4, §5, §6, §7

siHa = assay: MTT test of overall cell growth, SiHa cervix cancer cells, normoxia or hypoxia; type: cell-based, human; settings: for IC50: Homo sapiens, hypoxia 1% O2, 72 h, read-out: IC50 (μM) Hypoxia 1% O2; for Selectivity: IC50 (normoxia)/IC50 (hypoxia 1% O2), if u.t.d., ratio of activity at 100 μM; for IC50 (μM) Normoxia: 72 h
Method: as §1, §2, §3, §4, §5, §6, §7

U373 = assay: MTT test of overall cell growth, U373 glioma cells, normoxia or hypoxia; type: cell-based, human; settings: for IC50: Homo sapiens, U373 MG, U373, hypoxia 1% O2, 72 h, read-out: IC50 (μM) Hypoxia 1% O2; for IC50 (μM) Normoxia: U373, normoxia, 72 h; for Selectivity: U373, IC50 (normoxia)/IC50 (hypoxia 1% O2), if u.t.d., ratio of activity at 100 μM
Method: as §1, §2, §3, §4, §5, §6, §7

[2] = 72 h, hypoxia 0.1% O2, 72 h, read-out: IC50 (μM) Hypoxia 0.1%
[3] = 72 h, hypoxia 1% O2, 72 h, read-out: IC50 (μM) Hypoxia 1%
[4] = 72 h, normoxia, 72 h, series compared with hypoxia 1%, read-out: IC50 (μM) Normoxia
[5] = IC50 (normoxia)/IC50 (hypoxia 0.1%)
[6] = IC50 (normoxia)/IC50 (hypoxia 1%)
[7] = hypoxia 1% O2, 72 h, read-out: IC50 (μM) Hypoxia 1% O2
[8] = normoxia, 72 h, read-out: IC50 (μM) Normoxia
[9] = 72 h, normoxia, 72 h, series compared with hypoxia 0.1%, read-out: IC50 (μM) Normoxia

Row | IC50 (MDA-MB-231) | IC50 (μM) Normoxia (MDA-MB-231) | IC50 (μM) Normoxia (MCF-7) | IC50 (μM) Hypoxia 1% O2 (PC3; PC3, hypoxia 1% O2, 72 h) | IC50 (μM) Normoxia (PC3) | IC50 (LoVo; [8]) | IC50 (siHa) | IC50 (μM) Normoxia (siHa) | IC50 (U373) | IC50 (μM) Normoxia (U373) | Structure (SMILES) | IC50 [1, 2] | IC50 [1, 3] | IC50 [1, 4] | Selectivity [1, 5] | Selectivity [1, 6] | Selectivity (MDA-MB-231) | IC50 (LoVo; [7]) | Selectivity (LoVo) | Selectivity (siHa) | Selectivity (U373) | also measured
1 | 158 µM | u.t.d. | u.t.d. | u.t.d. | u.t.d. | 216 µM | 134 µM | u.t.d. | 141 µM | u.t.d. | COC(=O)c1ccc2nc3c4c(c5ccccc5c3nc2c1)OC(C)(C)[C@H]1CC[C@H](C)C[C@H]41 [Compound 11] | 65.8 µM | 10.9 µM | 149 µM | >3.4^b | 14 | >1.44^b | 152 µM | 1.42 | >1.69^b | >1.61^b | IC50 (μM) Normoxia ([1]; normoxia, 72 h, series compared with hypoxia 0.1%): u.t.d.; IC50 (μM) Hypoxia 1% O2 (MCF-7; MCF-7, hypoxia 1% O2, 72 h): u.t.d.
2 | 230 µM | u.t.d. | u.t.d. | u.t.d. | u.t.d. | 210 µM | 138 µM | u.t.d. | 234 µM | u.t.d. | COc1ccc(CNC(=O)c2ccc3nc4c5c(c6ccccc6c4nc3c2)OC(C)(C)[C@H]2CC[C@H](C)C[C@H]52)c(OC)c1 [Compound 16] | 0.09 µM | 14.4 µM | 42.6 µM | 1480 | 3 | >1.16^b | – | <0.79^b | >1.92^b | >1.14^b | IC50 [1, 9]: 129 µM; IC50 (MCF-7; MCF-7, hypoxia 1% O2, 72 h): 164 µM; Selectivity (MCF-7): >1.63^b; IC50 (μM) Hypoxia 1% O2 (LoVo; hypoxia 1% O2, 72 h): u.t.d.

Row | Structure (SMILES) | IC50 (MDA-MB-231) | IC50 (μM) Normoxia (MDA-MB-231) | IC50 (μM) Normoxia (MCF-7) | IC50 (μM) Hypoxia 1% O2 (PC3; PC3, hypoxia 1% O2, 72 h) | IC50 (μM) Normoxia (PC3) | IC50 (LoVo; [8]) | IC50 (siHa) | IC50 (μM) Normoxia (siHa) | IC50 (U373) | IC50 (μM) Normoxia (U373) | IC50 [1, 2] | IC50 [1, 3] | IC50 [1, 4] | Selectivity [1, 5] | Selectivity [1, 6] | Selectivity (MDA-MB-231) | IC50 (LoVo; [7]) | Selectivity (LoVo) | Selectivity (siHa) | Selectivity (U373) | also measured
3 | COC(=O)c1ccc2nc3c(nc2c1)c1c(c2ccccc23)OC(C)(C)[C@H]2CC[C@H](C)C[C@H]12 [Compound 11′] | 136 µM | u.t.d. | u.t.d. | – | u.t.d. | 220 µM | 132 µM | u.t.d. | 74.9 µM | u.t.d. | 13.6 µM | 11.8 µM | 176 µM | 16.5 | 15 | >1.67^b | 154 µM | 1.43 | >1.72^b | >3.03^b | IC50 [1, 9]: 225 µM; IC50 (MCF-7; MCF-7, hypoxia 1% O2, 72 h): 150 µM; Selectivity (MCF-7): >1.52^b; IC50 (PC3; Homo sapiens, PC-3, PC3, hypoxia 1% O2, 72 h, read-out: IC50 (μM) Hypoxia 1% O2): 161 µM; Selectivity (PC3; PC3, IC50 (normoxia)/IC50 (hypoxia 1% O2), if u.t.d., ratio of activity at 100 μM): >1.41^b
